This note sets out measurements from US11063221B2, “Materials for electronic devices” (Merck Patent GmbH, priority 2014, dated 2021).

Values after ≈ are worked out from the molar mass of the structure shown.

The first data set in a line: Solubility of host materials (Table 4, solution-processed OLEDs). It counts as physicochemical. Conditions: Example V8.
Regarding `c1ccc(-c2c3ccccc3c(-c3cccc4c3ccc3cc5ccccc5cc34)c3ccccc23)cc1` [VH-3], the “Solubility / processability from solution (in words)” value is recorded as “cannot be processed from solution at all owing to the low solubility”.

The same data set, now with this note: host material; solvent not given (emission-layer mixture is dissolved in toluene).
Turning to `c1ccc(-c2c3ccccc3c(-c3cccc4c3ccc3cc5ccccc5cc34)c3ccccc23)cc1` [VH-3], the Solubility (in general, the concentration that dissolves in the medium under given conditions) was less than 1 mg/mL.

For the compound `CC(C)Cc1c2ccccc2cc2c1ccc1c(-c3c4ccccc4c(-c4ccccc4)c4ccccc34)cccc12` [H-2], the Solubility is 45 mg/mL (≈ 83.8 mM).

Take `Cc1c2ccccc2cc2c1ccc1c(-c3c4ccccc4c(-c4ccccc4)c4ccccc34)cccc12` [H-1]: the Solubility was found to be 40 mg/mL (≈ 80.9 mM).

As for `c1ccc(-c2cc(-c3ccccc3)cc(-c3c4ccccc4c(-c4cccc5c4ccc4cc6ccccc6cc45)c4ccccc34)c2)cc1` [VH-1], the Solubility came to 70 mg/mL (≈ 111 mM).

Take `c1ccc2cc(-c3c4ccccc4c(-c4cccc5ccccc45)c4ccccc34)ccc2c1` [VH-4]: the Solubility is 44 mg/mL (≈ 102 mM).
